The structures appear in SMILES notation. “Also recorded” adds a separate entry of the source.

One data set concerns S. aureus ATCC 13709. The experiment in a line: Prophylactic model of bone infection in rats. It counts as in vivo, rat. The note with it: for prophylactic effect in rat model of bone infection, in words: Table 4 and FIGS. 6-8, doses as in Table 4. The method, boiled down: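 Female CD rats (n=5/group) given intra-tibial 5% sodium morrhuate then S. aureus (ca. 5×10^5 CFU/rat), hole sealed with dental cement. Prodrugs given as single IV bolus in 0.9% saline at various times before infection; parent at molar equivalent dose. Tibiae harvested 24 h postinfection; Log CFU/g bone, detection limit 2 Log CFU/g.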

Data set [1] can be described thus: Levels of prodrug 52 in rat plasma in vivo. As to the method:
Female CD rats (age, 57 to 70 days; n=3/group; Charles River, St-Constant, Canada) were administered a single bolus intravenous (tail vein) dose of compound 52 (dissolved in 0.85% NaCl) at 15.8 mg/kg of body weight, corresponding to 10 mg/kg of moxifloxacin 3. Animals were sacrificed by CO2 inhalation at the specified time points after i.v. dosing to evaluate the levels of 52 in plasma. Blood samples were collected by cardiac puncture and transferred in BD Vacutainer tubes (green cap) for plasma isolation. The plasma components were obtained by centrifugation of these samples and they were stored at −80° C. until analysis.
For the dosage of prodrug in the plasma, the standards and QCs were prepared (in duplicate) as follows: to 100 μl of blank plasma was added a spiking solution (5 μl) of the prodrug (52 in water). The range of the standards (8 levels) was from 0.06 to 25 μM and the QC levels were 0.18, 1.87 and 18.75 μM. Four samples of blank plasma without prodrug were also prepared. […]
Moxifloxacin 3 resulting from the cleavage of the prodrug was analyzed with the same method on an Agilent 1100™ series LC/MSD Trap, The extracted sample was injected into a Zorbax™ SB-Aq column (2×30 mm, 3.5μ), using 0.1% formic acid in water(aq) and 0.1% formic acid in acetonitrile(org) as the mobile phase, at a flow rate of 0.3 ml/min. […]

Consider `COc1c(N2C[C@@H]3CCCN[C@@H]3C2)c(F)cc2c(=O)c(C(=O)OCC(=O)NC(P(=O)(O)O)P(=O)(O)O)cn(C3CC3)c12` [Compound 52, (1,1-Bisphosphonomethylcarbamoyl)methyl 1-cyclopropyl-6-fluoro-1,4-dihydro-7-((4aS,7aS)-octahydropyrrolo[3,4-b]pyridin-6-yl)-8-methoxy-4-oxoquinoline-3-carboxylate], for which the “bacterial titer compared with untreated group” value with S. aureus ATCC 13709 (15.8 mg/kg IV 5, 10, 15 and 20 days before infection (FIG. 6)) is recorded as “significant (p<0.05) decrease in bacterial titer”; with S. aureus ATCC 13709 (32 mg/kg IV 7, 14, 21 and 28 days prior to infection (FIG. 7)), “significant decrease in bacterial titer”. Also, the “Measured bacterial titer (Log CFU/g of bone) Test compound” value with S. aureus ATCC 13709 (15.8 mg/kg IV, 2 days prior to infection, 24 h postinfection) is 2.29 ± 0.30 Log CFU/g of bone. The “prophylactic effect in rat model of bone infection, in words” value in the data set on S. aureus ATCC 13709 is “efficient prophylactic effect”. Further, in data set [1] (FIG. 5), the “clearance from the blood circulation of rats, in words” value is listed as “rapid clearance”. In data set [1] (rat plasma, IV bolus 15.8 mg/kg, 5 min to 24 h), the “half-life of clearance from the circulation” value was “less than one hour”.

With `COc1c(N2CCNC(C)C2)c(F)cc2c(=O)c(C(=O)OCC(=O)NC(P(=O)(O)O)P(=O)(O)O)cn(C3CC3)c12` (stereo not drawn) [Compound 54, (1,1-Bisphosphonomethylcarbamoyl)methyl 7-(3-methylpiperazin-1-yl)-1-cyclopropyl-6-fluoro-1,4-dihydro-8-methoxy-4-oxoquinoline-3-carboxylate], the “bacterial titer compared with untreated group” value with S. aureus ATCC 13709 (17.3 mg/Kg IV 48 h prior to infection (FIG. 8)) was “significant (p-value ≦0.0002) decrease in bacterial titer; also recorded: nearly sterile bone”. Further, in the data set with S. aureus ATCC 13709 (20 mg/kg IV, 3 days prior to infection), the “Measured bacterial titer (Log CFU/g of bone) Test compound” value is given as 2.96 ± 0.69 Log CFU/g of bone. Further, the “prophylactic effect in rat model of bone infection, in words” value with S. aureus ATCC 13709 is on record as “efficient prophylactic effect”.

These data come from patent US20080287396A1, “Phosphonated Fluoroquinolones, Antibacterial Analogs Thereof, and Methods for the Prevention and Treatment of Bone and Joint Infections” (TARGANTA THERAPEUTICA INC., priority 2005, published 2008).
